According to US20230330118A1, “2-DEOXY-D-GLUCOSE FOR PREVENTION AND TREATMENT OF A VIRAL DISEASE, IN PARTICULAR OF COVID-19” (priority 2020, published 2023):
Where two headings read alike, the source gives them in different places.

Assays:
SARS-CoV-2 Spike Protein = test: Western blot analysis of Spike protein glycosylation in human bronchial epithelial cells (HBEpiC) transduced with Spike lentiviral vectors; assay type: cell-based
[1] = tested on: Human Bronchial Epithelial Cells (HBEpiC); test: Cell viability (CellTiter 96 AQueous), short exposure; assay type: cell-based; details: 15 minutes to 6 hours exposure
Protocol: (§1) Human Bronchial Epithelial Cells (HBEpiC) were obtained from Innoprot (Cat no. P10557, batch no. 7475) and cultured in Bronchial Epithelial Cell Medium (Innoprot, Cat no. P60151) supplemented with 0.2% gentamicin (Gibco, Life Technologies, USA, Cat. no. 15710-049) under standard cell culture conditions (5% CO2, 16% O2, 37° C.). HBEpiC at passage 2, were plated in Bronchial Epithelial Cell Medium at 10.0 thousand cells per well of a 96-well plate and left for 48 hours in an incubator. The plates were coated with collagen (Collagen I-cell surface coating kit, Innoprot, Cat no. P8188) prior to cell seeding. 2-deoxy-D-glucose (Sigma-Aldrich; Cat no. D8375) was added to the cells for 15 min, 30 min, 1 h, 2 h and 6 h.
Cells were exposed to the compound at the following concentrations of 2-deoxy-D-glucose in medium as a solvent: 200 mM; 100 mM; 50 mM; 25 mM; 12.5 mM; 6.25 mM.
In order to assess cell viability, medium containing 2-deoxy-D-glucose was removed, the fresh medium was added to the cells and CellTiter 96® AQueous Solution Assay (Promega) was used in accordance with the manufacturer's instructions, 20 μl of reagent was added per 100 μl of cell culture medium and cells were incubated at 5% CO2, 16% O2, 37° C. Absorbance was measured at 490 nm. The results obtained 1 hour after addition of the CellTiter reagent were analyzed in GraphPadPrism 5.01. […]

[2] = tested on: Human Bronchial Epithelial Cells (HBEpiC); test: Cell viability (CellTiter 96 AQueous), long exposure; assay type: cell-based; details: 48 h exposure (FIG. 5)
Protocol: as §1, with “passage 6,” for “passage 2,”, “at 9.0” for “at 10.0”, “for 48” for “for 15 min, 30 min, 1 h, 2 h and 6”
Cells were exposed to compounds at the following concentrations of 2-deoxy-D-glucose in medium as a solvent: 100 mM; 50 mM; 25 mM; 12.5 mM; 6.25 mM; 3.13 mM.
In order to asses cell viability, CellTiter 96® AQueous Solution Assay (Promega) was used in accordance with the manufacturer's instructions, 20 μl of reagent was added per 100 μl of cell culture medium and cells were incubated at 5% CO2, 16% O2, 37° C. Absorbance was measured at 490 nm. The results obtained 4 hours after addition of the CellTiter reagent were analyzed in GraphPadPrism 5.01. Data normalization and a nonlinear regression model were applied in order to determine the IC50.

SARS-CoV-2 [3] = assay type: cell-based
[4] = tested on: primary human bronchial epithelial cells; test: Toxicity observed in PBEC during the 48 h antiviral incubation; assay type: cell-based; details: 48 h incubation
Protocol: Day 2. Pre-treatment of PBEC cells in 48 wells plate with 2-DG prior to SARS-CoV-2 infection (2 h), and treatment with 2-DG for 48 h. SARS-CoV-2 was added at MOI 10-1 (MOI 0.1) and removed after 2 hours. Then, the cell culture was washed with PBS (3×0.5 mL) and 300 μL of medium with 2-DG from 50 mM to 0.39 mM, or medium with or without remdesivir for control, were added.

SARS-CoV-2 [5] = assay type: cell-based; details: Vero E6
SARS-CoV-2 [6] = assay type: cell-based; details: for TCID50/ml: Vero-E6, M.O.I 0.001
[7] = 2-DG uptake measurement in lung tissue lysates of mice treated by inhalation; assay type: in vivo; details: 7 days, 14 days
Protocol: The analysis involved six lung tissue sections of mice (both male and female) treated by inhalation with 2-DG at a concentration of 30 mM thrice a day for 24 hours, 7 days and two weeks. The tissues were weighed, suspended in 10 mM Tris-HCl lysis buffer (pH 8.0) and then subjected to homogenization with the use of homogenizer (MPW-302, Precision Mechanics). Each analyzed sample is described in table below:
The 2DG6P accumulation in cells was determined with the use of 2-Deoxyglucose (2-DG) Uptake Measurement Kit (Cat. No. CSR-OKP-PMG-K01TE; Cosmo Bio Co., LTD., Tokyo, Japan) according to the manufacturer's protocol.
1. Cell and tissue lysates were heat treated at 80° C. for 15 min and then centrifuged at 4° C., 15 000×g for 20 min.
2. The supernatants were transferred to new tubes and used as unknown samples for measurement method (point 5).
3. The 2DG6P standards were prepared by serial dilution of 1 mM 2DG6P in 1× Sample Diluent Buffer in the following ranges: 0; 0.3125; 0.625; 1.25; 2.5 and 5 μM.
4. 60 μL of Reagent Mix A (including NAD and low glucose-6-phosphate dehydrogenase (G6PDH)) were added to each well of 96-ell plate.
5. Then 2DG6P standard and unknown samples (20 μL) were added to each well and incubated for over 19 hours at room temperature.
6. […]
12. The optical density (OD) was read at 420 nm in every 2.5 min over a period of 30 min using a microplate reader preheated to 30° C.

rhinovirus [8] = details: Gualdoni et al. 2018; cited from earlier work
rhinovirus [9] = details: Gualdoni et al. 2018; cited from earlier work; remark: listed apart in the source
SARS-CoV-2 [10] = details: Bojkova et al. 2020; cited from earlier work
[11] = very high tolerance; cited from earlier work

O=CC[C@@H](O)[C@H](O)[C@H](O)CO [Example 2-DG, 2-deoxy-D-glucose]
inhibition of spike glycosylation at 15 mM (SARS-CoV-2 Spike Protein; 15 mM, FIG. 2): total inhibition | glycosylation of spike protein from SARS-CoV-2 virus (SARS-CoV-2 Spike Protein; 25 mM or 15 mM 2-DG for 24 h, Western blot (FIG. 2)): inhibits glycosylation | cytotoxic effects on epithelial cells [1]: lack of cytotoxic effects | IC50 (cell viability) [2]: very high | concentration from which production of infectious SARS-CoV-2 particles decreases (SARS-CoV-2 [3]; PBEC, 2 h pretreatment, MOI 0.1, 48 h, TCID50): ≥ 0.78 mM | concentration above which effect is equivalent to the positive control remdesivir (SARS-CoV-2 [3]; PBEC, remdesivir 6 μM): above 0.78 mM | concentration from which production of infectious SARS-CoV-2 particles massively decreases (SARS-CoV-2 [3]; PBEC, treatment only conditions, MOI 0.1, 48 h, TCID50): ≥ 0.78 mM | SARS-CoV-2 virus production (SARS-CoV-2 [3]; primary human bronchial epithelial cells, 0.39 to 50 mM): dose dependent decrease | toxicity [4]: No toxicity | production of infectious SARS-CoV-2 particles (TCID50) (SARS-CoV-2 [5]; MOI 0.001, 0.39 to 50 mM, 24 h): strong decrease | effect on qPCR experiments (gene E copy numbers) compared with TCID50 (SARS-CoV-2 [5]; RT-qPCR): less pronounced | production of infectious SARS-CoV-2 particles (TCID50) (SARS-CoV-2 [6]; Vero E6, 2-DG added 8 hours after infection): strong decrease | TCID50/ml (SARS-CoV-2 [6]; Post-treatment (8 h.p.i), 2-DG 0.19 mM): 1.47E+07 TCID50/ml | TCID50/ml (SARS-CoV-2 [6]; Post-treatment (8 h.p.i), 2-DG 0.56 mM): 3.16E+07 TCID50/ml | TCID50/ml (SARS-CoV-2 [6]; Post-treatment (8 h.p.i), 2-DG 1.67 mM): 3.16E+06 TCID50/ml | TCID50/ml (SARS-CoV-2 [6]; Post-treatment (8 h.p.i), 2-DG 5 mM): 3.16E+05 TCID50/ml | TCID50/ml (SARS-CoV-2 [6]; Post-treatment (8 h.p.i), 2-DG 15 mM): 3.16E+04 TCID50/ml | TCID50/ml (SARS-CoV-2 [6]; Post-treatment (8 h.p.i), 2-DG 45 mM): 1.47E+01 TCID50/ml | TCID50/ml (SARS-CoV-2 [6]; Treatment (0 h.p.i), 2-DG 0.19 mM): 6.81E+06 TCID50/ml | TCID50/ml (SARS-CoV-2 [6]; Treatment (0 h.p.i), 2-DG 0.56 mM): 3.16E+07 TCID50/ml | TCID50/ml (SARS-CoV-2 [6]; Treatment (0 h.p.i), 2-DG 1.67 mM): 1.47E+07 TCID50/ml | TCID50/ml (SARS-CoV-2 [6]; Treatment (0 h.p.i), 2-DG 5 mM): 1.47E+05 TCID50/ml | TCID50/ml (SARS-CoV-2 [6]; Treatment (0 h.p.i), 2-DG 15 mM): 3.16E+02 TCID50/ml | TCID50/ml (SARS-CoV-2 [6]; Treatment (0 h.p.i), 2-DG 45 mM): 3.16E+00 TCID50/ml | course of 2-DG accumulation over treatment time ([7]; inhalation 24 h): plateau effect | 2-DG accumulation in the lungs ([7]; inhalation of 30 mM 2-DG thrice a day for 24 h, OD 420 nm (FIG. 10)): accumulated in the lungs | rhinovirus replication in vitro (rhinovirus [8]): decreasing rhinovirus replication | infection and inflammation in a mouse model (rhinovirus [9]): inhibited infection and inflammation | SARS-CoV-2 replication (SARS-CoV-2 [10]): inhibition | tolerated dose in clinical trials [11]: up to 63 mg per kg body weight and day

CCC(CC)COC(=O)[C@H](C)N[P@](=O)(OC[C@H]1O[C@@](C#N)(c2ccc3c(N)ncnn23)[C@H](O)[C@@H]1O)Oc1ccccc1 [RMD, remdesivir]
TCID50/ml (SARS-CoV-2 [6]; Post-treatment (8 h.p.i), RMD 6 μM): 6.81E+03 TCID50/ml | TCID50/ml (SARS-CoV-2 [6]; Treatment (0 h.p.i), RMD 6 μM): 6.81E+00 TCID50/ml
